Source: ChEMBL document CHEMBL5034039, “Discovery of Novel, Orally Bioavailable Pyrimidine Ether-Based Inhibitors of ELOVL1” (J Med Chem, 2021)

Columns and labels:
[1] = Intrinsic clearance in rat hepatocytes assessed per million cells; format: ADME, cell-based, Hepatocyte; details: read-out: CLH
[2] = biological target: T1, Very long chain fatty acid elongase 1 (Homo sapiens, UniProt Q9BW60); experiment: Inhibition of ELOVL1 in HEK293 cells assessed as reduction of C26:0 lipo phosphatidyl choline synthesis; format: cell-based
T1 sequence (Q9BW60 whole entry): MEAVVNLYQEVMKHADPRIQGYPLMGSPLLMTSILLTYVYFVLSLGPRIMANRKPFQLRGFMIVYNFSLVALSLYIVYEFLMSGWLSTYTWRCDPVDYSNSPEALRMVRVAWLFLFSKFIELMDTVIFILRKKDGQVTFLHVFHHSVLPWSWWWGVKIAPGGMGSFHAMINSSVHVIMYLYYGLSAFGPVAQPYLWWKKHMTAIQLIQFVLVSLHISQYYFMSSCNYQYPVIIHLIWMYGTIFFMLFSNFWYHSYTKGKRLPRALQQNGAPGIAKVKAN

[3] = Lipophilicity, logD of the compound at pH 7.4; format: physicochemical; details: buffer
[4] = biological target: T1, Very long chain fatty acid elongase 1; experiment: Inhibition of ELOVL1 (unknown origin)
[5] = Reduction in C26:0/C16:0 LPC level in ABCD1 knock out mouse CNS at 10 mg/kg, po qd and measured after 8 months relative to control; format: functional; set-up: scale not given: the % may be the effect or the level left; details: 5840 h
[6] = Reduction in C26:0/C16:0 LPC level in ABCD1 knock out mouse CNS at 10 mg/kg, po qd and measured after 3 months relative to control; format: functional; set-up: scale not given: the % may be the effect or the level left; details: 2190 h

Compound | hepatocyte CLint [1] | IC50 [2] | logD [3] | IC50 [4] | Activity [5] | Activity [6]
c1ccc([C@H]2CN(c3cc(O[C@H]4C[C@@H](c5ccccc5)C4)ncn3)CCO2)cc1 | 11 µL/min/1e6 cells | 15 nM | 5.7 | – | – | –
Cc1ccnn1CCCOc1cc(N2CCOC3(COC3)C2)ncn1 | 13 µL/min/1e6 cells | 120 nM | 1.6 | – | – | –
Cc1ccnn1CCCOc1cc(N2CCCCC2)ncn1 | 184 µL/min/1e6 cells | 7 nM | 3.2 | – | – | –
Fc1cnn([C@H]2C[C@H](c3cc(O[C@H]4C[C@@H](n5cccn5)C4)ncn3)C2)c1 | 9.2 µL/min/1e6 cells | 0.6 nM | 3.1 | – | – | –
Fc1ccc(CCOc2cc(-c3cccnc3)ccn2)cc1 | – | – | – | > 20000 nM | – | –
Fc1ccc(CCOc2cc(N3CCCOCC3)ncn2)cc1 | 144 µL/min/1e6 cells | 3 nM | 3.4 | – | – | –
c1cnn([C@H]2C[C@@H](Oc3cc([C@H]4C[C@H](n5cccn5)C4)ncn3)C2)c1 | 5.6 µL/min/1e6 cells | 10 nM | 2.6 | – | – | –
c1ccc([C@H]2CN(c3cc(O[C@H]4C[C@@H](n5ccnn5)C4)ncn3)CCO2)cc1 | 14 µL/min/1e6 cells | 9 nM | 2.9 | – | – | –
O=C(Nc1ccn(-c2ccnc(F)c2)n1)C1(c2ccccc2F)CC1 | – | – | – | – | 65% | 34%
c1ccc([C@H]2CN(c3cc(O[C@H]4C[C@@H](c5nnco5)C4)ncn3)CCO2)cc1 | 8 µL/min/1e6 cells | 9 nM | 2.8 | – | – | –
Fc1ccc(CCOc2cc(N3CCOCC3)ncn2)cc1 | 137 µL/min/1e6 cells | 12 nM | 3.3 | – | – | –
Clc1ccn([C@H]2C[C@H](c3cc(O[C@H]4C[C@@H](n5cccn5)C4)ncn3)C2)n1 | 12 µL/min/1e6 cells | 2 nM | 3.5 | – | – | –
c1ccc([C@H]2CN(c3cc(O[C@H]4C[C@@H](c5ncco5)C4)ncn3)CCO2)cc1 | 17 µL/min/1e6 cells | 5 nM | 3.9 | – | – | –
Cc1ccnn1CCCOc1cc(N2CCOC(c3ccnn3C)C2)ncn1 (centres undefined) | 23 µL/min/1e6 cells | 140 nM | 2.1 | – | – | –
